Results on 19 compounds are retold here after US12492422B2, “Ex vivo protease activity detection for disease detection/diagnostic, staging, monitoring and treatment” (Sunbird Bio, Inc., priority 2020, dated 2025).

Square brackets hold non-standard residues; d marks the D form. Primed or numbered codes have the meaning given here. Ends that are not written are not given here. CPQ2″ = quencher on the Lys side chain; FAM = fluorescent reporter; CPQ2(4) = quencher on Lys; PEG2″ = PEG2 spacer; CPQ2 = quencher

Experiment [1] has as its system cathepsin and/or MMP protease activities. Kind of experiment: Ex vivo probe cleavage in plasma: healthy, NASH regression, NASH progression. It is filed as biochemical, mice. As to conditions: K2EDTA plasma at 20 weeks. An excerpt: Plasma samples were collected from all animals at 20 weeks.
The probes showing the most differentiation in NASH were linked to cathepsin and/or MMP protease activities.

Experiment [2] relates to proteases cleaving Probe #102 in plasma (cathepsin L). The experiment is described as follows: Inhibitor profiling of Probe #102 cleavage in NASH and healthy plasma. Format: biochemical, mice. As to conditions: for effect of inhibitor on Probe #102 signal: NASH or healthy samples. As to the method: For this experiment, all plasma samples were prepared individually and diluted 1/10e in PBS with inhibitor added directly to the samples. Inhibitor was prepared at 15× concentration to final. Substrates were diluted in DI water at 18 uM, such that the final concentration on the plate would be 6 uM. All samples were prepared such that their last dilution on the plate would not affect the desired final concentration. 10 ul of each individual sample was pipetted into their corresponding wells, and the plate was then spun down in the centrifuge at 1500 RPM for 30 seconds to coat the bottom of each well with the sample. 5 ul of the 18 uM substrate solution was pipetted into each well being used on a 384 well plate, and then the plate was spun down in the centrifuge at 1500 rpm for 30 seconds. The plate was placed immediately in the plate reader at 37° C. for a 30-minute-long fluorescence kinetic read at 485/535 extended gain.
To assess the proteolytic cleavage pattern of Probe #102, samples were tested using a pool of broad inhibitors for serine, cysteine, threonine, MMP and aspartic protease family members (broad inhibitor) to assess general protease activity, AEBSF for serine proteases, E64 for cysteine proteases, CTSi for broad cathepsin inhibition of cathepsins L, S, K and B, or specific inhibitors for cathepsin K (L00625), for cathepsin L (SID) or cathepsin B (CA074).

Experiment [3] has as its system COVID-related proteases. The experiment is described as follows: Ex vivo probe cleavage in K2EDTA and Lithium Heparin plasma, COVID vs healthy. It is filed as biochemical. As to conditions: K2EDTA and LiHeparin plasma cohorts.
For another experiment, the system named is caspase activity. The experiment is described as follows: Ex vivo probe cleavage in plasma of Jo2 fulminant hepatitis model. As to conditions: plasma 3 hours after Jo2 injection. Format: biochemical, mouse. As to the method: Fulminant hepatitis is induced after injection intraperitoneal of monoclonal antibody anti-CD95 (Jo2, BD biosciences, 4 ug/animal), and mouse plasma samples were collected 3 hours after Jo2 injection.
The comparison with mass spectrometry data also aligns and confirms high concordance with the ex vivo approach, which is reassuring to confirm the existence of a biologically relevant signal.

The target of the next experiment is T1, Granzyme B (Homo sapiens, UniProt P10144).
T1 construct: from tissue; host or cells: swab samples
T1 sequence (P10144 21-247): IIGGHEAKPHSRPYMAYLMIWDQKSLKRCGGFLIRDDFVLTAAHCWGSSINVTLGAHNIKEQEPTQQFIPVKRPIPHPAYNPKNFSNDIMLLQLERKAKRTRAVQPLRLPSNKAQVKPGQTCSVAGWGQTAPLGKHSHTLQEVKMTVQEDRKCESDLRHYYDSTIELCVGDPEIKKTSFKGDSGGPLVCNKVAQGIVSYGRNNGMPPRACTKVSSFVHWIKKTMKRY
Kind of experiment: Inhibition experiments on Probe #647 signal in swabs (Granzyme B, caspases). Format: biochemical. As to conditions: healthy vs COVID samples.

The test system of experiment [4] is COVID-related proteases. The experiment is described as follows: Ex vivo probe cleavage in COVID positive and negative swab samples. Format: biochemical.
The subject of experiment [5] is carboxylesterase 1, phospholipase A2 and lipoprotein lipase. The experiment is described as follows: Resorufin oleate substrate with recombinant enzymes spiked in human plasma. Format: biochemical.
Another experiment concerns the target furin (Homo sapiens, UniProt P09958). The settings on record: solid-state fluorescence of precipitates after reaction of HPQF with furin; cited from earlier work.

Sequence of furin (P09958 108-794, species assumed): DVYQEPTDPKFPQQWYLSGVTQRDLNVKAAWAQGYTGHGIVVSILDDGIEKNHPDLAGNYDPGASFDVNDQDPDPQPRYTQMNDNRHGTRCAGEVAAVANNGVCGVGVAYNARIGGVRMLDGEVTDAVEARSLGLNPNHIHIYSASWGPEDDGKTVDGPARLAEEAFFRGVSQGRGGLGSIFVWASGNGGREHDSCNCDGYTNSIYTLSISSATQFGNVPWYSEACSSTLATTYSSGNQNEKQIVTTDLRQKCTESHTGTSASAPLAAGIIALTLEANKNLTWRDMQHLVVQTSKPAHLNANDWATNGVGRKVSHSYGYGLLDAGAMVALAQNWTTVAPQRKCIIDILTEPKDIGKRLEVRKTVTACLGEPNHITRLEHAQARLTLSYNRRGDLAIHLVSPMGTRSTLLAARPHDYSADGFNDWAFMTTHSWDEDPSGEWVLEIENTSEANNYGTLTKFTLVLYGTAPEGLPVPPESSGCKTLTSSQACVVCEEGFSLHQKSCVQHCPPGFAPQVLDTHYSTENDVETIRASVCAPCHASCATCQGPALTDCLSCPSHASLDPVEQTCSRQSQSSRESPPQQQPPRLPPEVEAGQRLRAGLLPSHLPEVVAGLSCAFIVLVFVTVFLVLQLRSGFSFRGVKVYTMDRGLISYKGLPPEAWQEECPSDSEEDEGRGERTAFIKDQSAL

Turning to “Probe #96: probe of Table 1 ({FAM}-GRPLALWESQGK(CPQ2(4))[PEG2″][dK]GC; not fully specified; printed as (FAM)-GRPLALWESQG-K(CPQ2)-PEG2-k-GC; also: FAM, place not given here, D-Lys-GC, place not given here)”, the “differentiation among healthy, regression and NASH samples” value (“differentiation among healthy” for short) in experiment [1] is “can differentiate”.

On to `CC(C)C[C@H](NC(=O)[C@H]1O[C@@H]1C(=O)O)C(=O)NCCCCN=C(N)N` [Probe E64], for which the “effect of inhibitor on Probe #102 signal” value in experiment [2] is reported as “decreased NASH signal significantly”. As for “Probe #84: Furin substrate (GRVKRGLAGK(CPQ2); also: 5-FAM, position not given here, PEG2, position not given here)”, the “differential cleavage between COVID and healthy samples” value in the experiment with COVID-related proteases [3] is “demonstrated contrast in both sets”.

In the case of “Probe #18: Neutrophil elastase substrate (GAAPVGK(CPQ2); also: 5-FAM, position not given here, PEG2, position not given here)”, the “differential cleavage between COVID and healthy samples” value in the experiment with COVID-related proteases [3] is “demonstrated contrast in both sets”. For “Probe #492: probe of Table 1; differentiates NASH in mouse plasma ({FAM}-GQRANSIRVTWGK(CPQ2(4))[PEG2″][dK][dK]GC; not fully specified; printed as (FAM)-GQRANSIRVTWG-K(CPQ2)-(PEG2)-DLys-DLys-GC; also: FAM, place not given here, D-Lys-D-Lys-GC, place not given here)”, in experiment [1], the “differentiation among healthy” value is recorded as “can differentiate”. As to “Probe #8: Caspase centric probe (GVDVADGK; not fully specified; 5-FAM, CPQ2 quencher, PEG2, D-Lys-D-Lys-GC; MOD_RES (8)..(8) Lys modified with a CPQ2 quencher)”, the “contrast in Jo2 hepatitis model” value with caspase activity was “show contrast that is specific and sensitive to the Jo2 model”.

`NCCc1ccc(S(=O)(=O)F)cc1` [AEBSF]: in experiment [2] (Probe #102 6 uM, NASH plasma diluted in PBS, 30-minute kinetic read at 37° C.), the “decrease of RFU signal in NASH samples” value was found to be 65%. Further, in experiment [2] (Probe #102 6 uM, healthy plasma diluted in PBS, 30-minute kinetic read at 37° C.), the “decrease of RFU signal in healthy samples” value is given as 60%. With “Probe #520: probe of Table 1 (GKPISLISSGK; not fully specified; 5FAM, CPQ2 quencher, PEG2-GC; MOD_RES (11)..(11) Lys modified with a CPQ2 quencher)”, the “differentiation among healthy” value in experiment [1] is “can differentiate”. Take “Probe #12: Caspase centric probe (GDEVDGK; not fully specified; 5-FAM, CPQ2 quencher, PEG2, D-Lys-D-Lys-GC; MOD_RES (7)..(7) Lys modified with a CPQ2 quencher)”: the “contrast in Jo2 hepatitis model” value in the experiment on caspase activity is “show contrast that is specific and sensitive to the Jo2 model”. On to “Probe #462: MMP8 substrate (GKKAKRNALGK(CPQ2); also: FAM, position not given here, PEG2, position not given here)”, for which the “differential cleavage between COVID and healthy samples” value in the experiment on COVID-related proteases [3] is reported as “demonstrated contrast in both sets”. Take “Probe #428: probe of Table 1 ({FAM}-GDRRKKLTQGK(CPQ2(4))[PEG2″][dK][dK]GC; not fully specified; printed as (FAM)-GDRRKKLTQG-K(CPQ2)-(PEG2)-DLys-DLys-GC; also: FAM, place not given here, D-Lys-D-Lys-GC, place not given here)”: the “differentiation among healthy” value in experiment [1] is “can differentiate”. Consider `CCCNC(=O)[C@H]1O[C@@H]1C(=O)N[C@H](C(=O)N1CCC[C@H]1C(=O)O)[C@@H](C)CC` [CA074], for which the “effect of inhibitor on Probe #102 signal” value in experiment [2] is recorded as “did not significantly decrease signal”. With “Probe #409: the SARS CoV2 coronavirus substrate (GTSAVLQSGFRKGK(CPQ2); also: 5-FAM, position not given here, PEG2, position not given here)”, the “differential cleavage between COVID and healthy samples” value in the experiment on COVID-related proteases [3] was “modest contrast in the K2 EDTA samples”. “Probe #647: Caspase centric probe; signal measures Granzyme B activity (GAIEPDSGGK(CPQ2); also: 5FAM, position not given here, PEG2, position not given here, D-Lys-D-Lys-GC-NH2, position not given here)”: the “protease measured by probe signal” value in the experiment with Granzyme B is reported as “measures the activity of protease Granzyme B”. Further, in experiment [1], the “differentiation among healthy” value is “can differentiate”. Also, in the experiment with COVID-related proteases [4] (adjusted RFU across timepoints), the “active samples among COVID+” value was 7 samples and the “active samples among COVID−” value came out at 1 sample. Also, the “differentiation between COVID+ and COVID− samples” value in the experiment with COVID-related proteases [4] (swab samples in saline) was “key differentiator”. Further, the “contrast in Jo2 hepatitis model” value in the experiment on caspase activity was “show contrast that is specific and sensitive to the Jo2 model”. With `CN1CCN(c2nc(-c3ccc(C(=O)NC4(C(=O)NCC#N)CCCCC4)cc3)cs2)CC1` [Probe L006235], the “effect of inhibitor on Probe #102 signal” value in experiment [2] was “did not significantly decrease signal”. With `CCCC(=O)O` [butyrate], the “suitability as substrate for enzyme detection” value in experiment [5] is recorded as “promising for detection of broad range of enzymes”. On to `O=c1[nH]c(-c2cc(Cl)ccc2O)nc2ccc(Cl)cc12` [Cl-HPQ], for which the fluorescence enhancement result on furin was “more than 60 fold”.

With Resorufin oleate, the “suitability as substrate for enzyme detection” value in experiment [5] is “promising for detection of broad range of enzymes”.

On to “Probe #102: a CTSL sensing probe; fluorescent reporter and quencher ({FAM}-GKPILFFRLKGK(CPQ2″)[PEG2″][dK][dK]GC; also: fluorescent reporter and quencher, places not given here)”, for which the “protease whose activity the probe responds to” value in experiment [2] (individual cathepsin inhibitors, FIG. 30D-F) is “specifically responds to the activity of cathepsin L (CTSL)”. In addition, the “differentiation among healthy” value in experiment [1] was “can differentiate”.
